These results are taken from patent US20210322508A1, “PEPTIDES AND COMPOSITIONS FOR TARGETED TREATMENT AND IMAGING” (SIGNABLOK, INC., priority 2018, published 2021).

Data set [1] has as its system mice with collagen-induced arthritis (CIA). The experiment in a line: collagen-induced arthritis (CIA) in mice. The settings on record: CIA mice. From the text:
As described herein, starting on day 24 after immunization, mice with CIA were intraperitoneally (i.p.) administered daily for 14 consecutive days with vehicle (black diamonds), dexamethasone (black squares), GF9 (white circles), GF9-LPC (black circles) and GA/E31-LPC (half black half white circles) at indicated doses. Daily clinical scores were given on a scale of 0-5 for each of the paws on days 24-38. On day 38, mice were killed and the histopathological examination of mouse joints was performed. Histopathological scores of inflammation (I), pannus (P), cartilage damage (CD), bone resorption (BR) and periosteal new bone formation (PBF) are shown. Summed histopathology scores were calculated as the sum of all five histopathological parameters. All results are expressed as the mean±SEM (n=10 mice per group).
Mouse body weight (BW) was measured every other day from day 24 to day 38. Mean BW changes were calculated as a percentage of the difference between beginning (day 24) and final (day 38) BWs of the CIA mice intraperitoneally (i.p.) treated daily for 14 consecutive days with vehicle, dexamethasone, GF9, GF9-LPC and GA/E31-LPC at indicated doses. All results are expressed as the mean±SEM (n=10 mice per group).
Plasma was collected on days 24, 30 and 38 from arthritic mice treated with vehicle (black diamonds), GF9 (white circles), GF9-LPC (black circles) and GA/E31-LPC (half black half white circles). Plasma samples were analyzed for concentrations of interleukin-1b (IL-1b), IL-6, and colony-stimulating factor 1 (CSF1). Results are expressed as the mean±SEM (n=5 mice per group).

In data set [2] the test system is DBA/1 mice with collagen-induced arthritis. Description: Collagen-induced arthritis (CIA) model. The settings on record: 5 mg/kg i.p. daily 14 days, free peptides. The protocol:
Animal studies were performed by Bolder BioPATH (Boulder, Colo., USA). CIA was induced in male 6- to 7-week-old DBA/1 mice by immunization with bovine type II collagen. Briefly, mice were injected intradermally with 100 μl of Freund's complete adjuvant containing 250 μg of bovine type II collagen (2 mg/ml final concentration) at the base of the tail on day 0 and again on day 21. On day 24, mice were randomized by body weight into treatment groups. […] Mice were weighed on study days 24, 26, 28, 30, 32, 34, 36 and 38 (prior to necropsy). Daily clinical scores were given on a scale of 0-5 for each of the paws on days 24-38. On day 38, mice were killed for necropsy.
At the end of study, fore paws, hind paws and knees were harvested, fixed in 10% neutral buffered formalin for 1-2 days, and then decalcified in 5% formic acid for 4-5 days before standard processing for paraffin embedding. Sections (8 μm) were cut and stained with toluidine blue (T blue). Hind paws, fore paws and knees were embedded and sectioned in the frontal plane. Six joints from each animal were processed for histopathological evaluation. The joints were then assessed using 0-5 scale for inflammation, pannus formation, cartilage damage, bone resorption and periosteal new bone formation. A summed histopathology score (sum of five parameters, 0-25 scale) was also determined.
Animal studies were performed by Bolder BioPATH (Boulder, Colo., USA). CIA was induced in male 6- to 7-week-old DBA/1 mice by immunization with bovine type II collagen. Briefly, mice were injected intradermally with 100 μl of Freund's complete adjuvant containing 250 μg of bovine type II collagen (2 mg/ml final concentration) at the base of the tail on day 0 and again on day 21. On day 24, mice were randomized by body weight into treatment groups. […] Starting day 24, mice were injected i.p. intraperitoneally daily for 14 consecutive days with 5 mg/kg G-KV21, G-HV21, G-TE21, M-TK32 and M-VE32 or with PBS (vehicle). Mice were weighed on study days 24, 26, 28, 30, 32, 34, 36 and 38 (prior to necropsy). Daily clinical scores were given on a scale of 0-5 for each of the paws on days 24-38. On day 38, mice were killed for necropsy.

The next data set concerns human cancer xenografts. Description: PTX-TREM-1/TRIOPEP tumor suppression in human cancer xenografts. It counts as in vivo. The settings on record: free and SLP-bound form. The text has this:
Tumor suppression studies using PTX-TREM-1/TRIOPEP formulations in free or SLP-bound form can be performed in animal models of cancer similarly as described herein (see e.g., the examples 7 and 8). Female 6-8 week old NU/J mice can be obtained from the Jackson Laboratory (Bar Harbor, Me.) Human cancer cell lines including but not limited to human carcinoma, human pancreas or human breast cancer cell lines can be obtained from ATCC. […] Human cancer xenografts are established by injecting subcutaneously into the right flanks certain amounts of viable cells per mouse. […] When tumor grows to approximately 125 mm^3 (100-150 mm^3), animals are pair-matched by tumor size into treatment and control groups. Either PTX (TAXOL®; 30 mg/kg PTX) or PTX-TREM-1/TRIOPEP formulations in free (60 mg/kg PTX) or SLP-bound (30 mg/kg PTX) are intravenously administered to the animals via tail vein. Clinical observations, body weights and tumor volume measurements are made twice a week once tumors become measureable. It should be noted that TAXOL® is formulated with a detergent Cremophor that in itself is cytotoxic and is also the source of numerous side effects during chemotherapy. The Cremophor content of TAXOL® is about 80× that of paclitaxel per ml.

For data set [3], the system named is Hepa 1-6 syngeneic hepatocellular carcinoma. The settings on record: orthotopic Hepa 1-6, Wu et al. 2019, cited from earlier work.
In another data set the test system is TGCT patients. The settings on record: cited from earlier work.
Another data set relates to PVNS patients. The settings on record: cited from earlier work.
Data set [4] has as its target T1, TREM-1 (triggering receptor expressed on myeloid cells-1) on murine J774A.1 macrophages (mouse, UniProt Q9JKE2 21-230).
T1 construct: whole, on cells; the cells are murine
T1 sequence (looked up): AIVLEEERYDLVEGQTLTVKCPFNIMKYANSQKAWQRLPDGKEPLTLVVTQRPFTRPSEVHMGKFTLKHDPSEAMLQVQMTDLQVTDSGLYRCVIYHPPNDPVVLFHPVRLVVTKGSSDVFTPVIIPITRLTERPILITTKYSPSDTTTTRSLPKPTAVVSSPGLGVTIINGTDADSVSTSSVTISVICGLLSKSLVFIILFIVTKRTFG
Description: confocal immunofluorescence on macrophages; colocalisation only, no direct binding assay. The protocol:
(§1) Immunofluorescence analysis of TREM-1 and TREM-1/TRIOPEP in the cell membrane was performed using the standard, well-known in the art methods as described in Shen and Sigalov J Cell Mol Med 2017, 21:2524-2534, and Rojas et al. 2018, herein incorporate by reference.
(§2) BALB/c murine macrophage J774A.1 cells were grown at 37° C. in six-well tissue culture plates containing glass coverslips. After reaching target confluency of approximately 50%, cells were incubated for 6 h at 37° C. with Dylight 488-labeled GF9 or TREM-1/TRIOPEP-sSLP that contained Dylight 488-labeled GE31. TREM-1 staining was performed was performed using an Alexa 647-labeled rat anti-mouse TREM-1 antibody (Bio-Rad, Hercules, Calif.). ProLong Gold Antifade DAPI (4′,6′-diamidino-2-phenylindole) mounting medium was used to mount coverslips, and the slides were photographed using an Olympus BX60 fluorescence microscope. Confocal imaging was performed with a Leica TCS SP5 II laser scanning confocal microscope.

The target in data set [5] is T1, TREM-1 (triggering receptor expressed …). The experiment in a line: confocal immunofluorescence on macrophages, labelled peptide against TREM-1 staining; colocalisation only, no direct binding assay. On the procedure:
as §1, §2

Non-standard residues stand in square brackets, D forms with d. Residues, ends and D or L forms follow the SMILES beside them. No end group written: not given here. Met(O) = CS(=O)CC[C@H](N)C(=O)O; PTX = not defined here

For the molecule `CSCC[C@H](NC(=O)[C@H](CCC(=O)O)NC(=O)[C@H](CCC(=O)O)NC(=O)[C@H](CCC(N)=O)NC(=O)[C@H](Cc1c[nH]c2ccccc12)NC(=O)[C@H](CCCCN)NC(=O)[C@H](CCCCN)NC(=O)[C@H](CCC(N)=O)NC(=O)[C@H](Cc1ccccc1)NC(=O)[C@H](CC(=O)O)NC(=O)[C@H](CC(=O)O)NC(=O)[C@H](CC(C)C)NC(=O)[C@H](Cc1ccc(O)cc1)NC(=O)[C@@H]1CCCN1C(=O)[C@H](Cc1ccccc1)NC(=O)[C@H](Cc1ccc(O)cc1)NC(=O)[C@H](CCCCN)NC(=O)[C@H](CC(C)C)NC(=O)[C@@H](NC(=O)[C@@H]1CCCN1C(=O)[C@@H](NC(=O)[C@H](CCCCN)NC(=O)[C@H](Cc1c[nH]c2ccccc12)NC(=O)[C@@H](N)CCSC)[C@@H](C)O)[C@@H](C)O)C(=O)N[C@@H](CCC(=O)O)C(=O)N[C@@H](CC(C)C)C(=O)N[C@@H](Cc1ccc(O)cc1)C(=O)N[C@@H](CCCNC(=N)N)C(=O)N[C@@H](CCC(N)=O)C(=O)N[C@@H](CCCCN)C(=O)N[C@H](C(=O)N[C@@H](CCC(=O)O)C(=O)O)C(C)C` [M-VE32] (H-MWKTPTLKYFPYLDDFQKKWQEEMELYRQKVE-OH), in data set [1] (day 24 to day 38), the “tolerability in arthritic mice (body weight changes)” value was “well-tolerated by arthritic mice”. The “arthritis (clinical arthritis score)” value in data set [1] (treatment days 24-38) is listed as “ameliorate the disease”. Further, in data set [2], the “CIA severity; bone and cartilage damage” value was “ameliorates CIA and protects against bone and cartilage damage”.
In the case of “PTX-GFLSKSLVFPLGEEMRDRARAHVDALRTHLA ({PTX}-GFLSKSLVFPLGEEMRDRARAHVDALRTHLA; reading uncertain; also: printed as PTX-GFLSKSLVFPLGEEMRDRARAHVDALRTHLA) [PTX-TREM-1/TRIOPEP]”, in the data set on human cancer xenografts, the “anticancer activity (tumor inhibition, survival rate) as compared to PTX” value is “anticipated to have a significantly higher anticancer activity” and the “tolerability in cancer mice as compared to PTX” value is “anticipated to be substantially better tolerated by cancer mice”.
In the case of “GLLSGSLVF [mGF9-G, control murine GF9-G peptide, reference compound]”, the “tumor growth (and survival), standalone treatment” value in data set [3] was “do not affect tumor growth and survival”.
Take `FC(F)(F)c1ccc(CNc2ccc(Cc3c[nH]c4ncc(Cl)cc34)cn2)cn1` [Pexidartinib]: in the data set on TGCT patients (Phase 2 study), the tumor volume entry is recorded as “prolonged regression in tumor volume in most patients”. Further, the liver toxicity entry in the data set with TGCT patients (Phase 3 study suspended) is “two reported cases of nonfatal, serious liver toxicity”. For the same molecule, the partial response in the data set on TGCT patients (extension study, 23 patients, Tap et al. 2015) is reported as 12 patients. Further, in the data set on TGCT patients (extension study, 23 patients), the stable disease was 7 patients.
Consider GLLSKSLVF [mGF9, murine GF9 peptide], for which the “tumor growth and survival, combined with anti-PD-L1 antibody” value in data set [3] (25 mg/kg i.p. daily) was “synergistically inhibits tumor growth and improves survival”.
`Cc1ccc(NC(=O)c2ccc(CN3CCN(C)CC3)cc2)cc1Nc1nccc(-c2cccnc2)n1` [Imatinib]: the symptomatic improvement in the data set with PVNS patients (16 of 22 patients assessable for symptoms) was 73%. Moreover, in the data set on PVNS patients (27 evaluable patients, Cassier et al. 2012), the “overall response rate per RECIST” value is reported as 19%. The stable disease in the data set on PVNS patients (Twenty of 27 patients) was 74%.

B1: TREM-1 inhibitory peptide GF9 (GFLSKSLVF, human TREM-1 213-221) (peptide)
peptide: GFLSKSLVF
modifications: not fully specified
notes: also called TREM-1 modulatory peptide GF9
For the molecule B1, the binding result in data set [4] is reported as “binds”.

B2: TREM-1-related trifunctional peptide (TREM-1/TRIOPEP) GE31, methionine sulfoxidized (peptide)
peptide: GFLSKSLVFPYLDDFQKKWQEE[Met(O)]ELYRQKVE
modifications: not fully specified; printed as GFLSKSLVFPYLDDFQKKWQEEM(O)ELYRQKVE; also: delivered in spherical synthetic lipopeptide particles (TREM-1/TRIOPEP-sSLP)
notes: In the cytokine assays it was used as an equimolar mixture with GA31; also called TREM-1 modulatory peptide GE31
As for B2, the binding result in data set [5] is given as “binds”.
